Assay results: patent publication US8735538B1, “Use of methanobactin” (priority 2006, dated 2014)
Read-outs that look alike come from different tables or passages of the source.

Columns and labels:
[1] = ITC, metal binding to mb: Fe(III); settings: Fe(III) column
Procedure: (§1) FIG. 14. Binding isotherm of 3.2 mM HgCl2 (A), HAuCl4 (B), AgNO3 (C) NiCl2 (D), ZnCl2 (E) or FeCl3 (F) into 400 μM mb (cell) aqueous solution at 25° C. Binding isotherm of 1.6 mM HAuCl4 (B). The curve fittings for two-site binding algorithm were used.
(§2) FIG. 15. Binding isotherm of 3.2 mM CdCl2 (A), CoCl2(B), FeCl3 (C), or MnCl2(D) into […] mb aqueous solution at 25° C. Curve fittings for one-site binding algorithm (B, D) or two-site binding algorithm (A, C) were used.
(§3) ITC was performed with following modifications from the previously described procedure (Choi et al., 2006). First, concentrations of the titrant and cell solutions were raised to 3.2 mM and 0.4 mM, respectively. Second, the interval between titrant injections were decreased to 600 s and the stirring rate decreased to 380 rpm.

[2] = Initial screening by UV-visible absorption spectroscopy: Zn(II); assay type: binding; settings: in the absence of Cu(II) or Cu(I)
Procedure: (§4) Metal titration experiments were determined by addition of 100 μM, 1 mM, or 10 mM solutions of AgNO3, HAuCl4, CdCl2, CoCl2, CrO3, CuSO4, FeCl3, HgCl2, MgCl2, MnCl2, NiCl2, Pb(NO3)2, UO2(NO3)2, or ZnSO4 to 50 μM methanobactin dissolved in H2O, pH 6.8 as previously described for Cu(II) or Cu(I) titrations (Choi et al., 2006) unless otherwise stated. Glassware was soaked in 0.1 N HNO3 for 12 hours then rinsed with milliQ H2O. For the metal replacement experiments, 50 μM aqueous mb solutions were preloaded with equimolar of AgNO3, HAuCl4, CaCl2, CdCl2, CoCl2, CrO3, CuSO4, FeCl3, HgCl2, MgCl2, MnCl2, NiCl2, Pb(NO3)2, UO2(NO3)2, or ZnSO4, incubated for 10 minutes followed by the addition of equimolar CuSO4 then monitored via UV-visible absorption spectroscopy every 30 seconds for 0.5-120 minutes. Between scans the samples were stored in the dark to avoid photodegradation (Choi et al., 2005).
(§5) UV-visible absorption, florescence spectra, circular dichroism (CD), and metal determinations via inductively coupled plasma atomic emission-mass spectroscopy (ICP-MS) were determined as previously described (Choi et al., 2003; Choi et al., 2006). In contrast to a previous report (Choi et al., 2006), the base line was used as a reference point of 0 instead of isosbestic point e for the comparison of Δεs.

[3] = Initial screening by UV-visible absorption spectroscopy: Ag(I); assay type: binding; settings: in the absence of Cu(II) or Cu(I)
Procedure: as §4, §5

[4] = Initial screening by UV-visible absorption spectroscopy: Co(II); assay type: binding; settings: in the absence of Cu(II) or Cu(I)
Procedure: as §4, §5

[5] = ITC, metal binding to mb: Mn(II); settings: Mn(II) column, one-site fit, 25° C.
Procedure: as §1, §2, §3

[6] = Initial screening by UV-visible absorption spectroscopy: Hg(II); assay type: binding; settings: in the absence of Cu(II) or Cu(I)
Procedure: as §4, §5

[7] = Initial screening by UV-visible absorption spectroscopy: U(VI); assay type: binding; settings: in the absence of Cu(II) or Cu(I)
Procedure: as §4, §5

[8] = Initial screening by UV-visible absorption spectroscopy: Fe(III); assay type: binding; settings: in the absence of Cu(II) or Cu(I)
Procedure: as §4, §5

[9] = Initial screening by UV-visible absorption spectroscopy: Cd(II); assay type: binding; settings: in the absence of Cu(II) or Cu(I)
Procedure: as §4, §5

[10] = XPS, oxidation state of metal bound to mb: Ni(II)
From the text: (§6) XPS was preformed on a model Phoibos-150 hemispherical analyzer (SPECS Scientific Instruments, Sarasota, Fla.) or on a model 5600ci spectrophotometer (Perkin-Elmer Inc., Eden Prairie, Minn.) as previously described (Choi et al., 2006).

[11] = Initial screening by UV-visible absorption spectroscopy: Sr(II); assay type: binding; settings: in the absence of Cu(II) or Cu(I)
[12] = Initial screening by UV-visible absorption spectroscopy: La(III); assay type: binding; settings: in the absence of Cu(II) or Cu(I)
[13] = ITC, metal binding to mb: Ni(II); settings: Ni(II) column
Procedure: as §1, §2, §3

[14] = ITC, metal binding to mb: Pb(II); settings: Pb(II) column, one-site binding model
Procedure: as §1, §2, §3

[15] = ITC, metal binding to mb: Zn(II); settings: Zn(II) column
Procedure: as §1, §2, §3

[16] = ITC, metal binding to mb: Hg(II); settings: Hg(II) column
Procedure: as §1, §2, §3

[17] = ITC, metal binding to mb: Cd(II); settings: Cd(II) column
Procedure: as §1, §2, §3

[18] = Initial screening by UV-visible absorption spectroscopy: Mn(II); assay type: binding; settings: in the absence of Cu(II) or Cu(I)
Procedure: as §4, §5

[19] = Initial screening by UV-visible absorption spectroscopy: Au(III); assay type: binding; settings: in the absence of Cu(II) or Cu(I)
Procedure: as §4, §5

[20] = ITC, metal binding to mb: Au(III); settings: column headed Au(II)
Procedure: as §1, §2, §3

[21] = Initial screening by UV-visible absorption spectroscopy: Pb(II); assay type: binding; settings: in the absence of Cu(II) or Cu(I)
Procedure: as §4, §5

[22] = Initial screening by UV-visible absorption spectroscopy: Mg(II); assay type: binding; settings: in the absence of Cu(II) or Cu(I)
Procedure: as §4, §5

[23] = Initial screening by UV-visible absorption spectroscopy: Ni(II); assay type: binding; settings: in the absence of Cu(II) or Cu(I)
Procedure: as §4, §5

[24] = ITC, metal binding to mb: Co(II); settings: Co(II) column, one-site fit, 25° C.
Procedure: as §1, §2, §3

[25] = XPS, oxidation state of metal bound to mb: Au(III)
From the text: FIG. 11. (A) Gold X-ray photoelectric spectra of mb at gold to mb molar ratios between 0.05 and 10 Au per mb. (B) Corrected signal from Au(0) (◯) and Au(III) (●) at different gold:mb molar ratios.
as §6

[26] = Initial screening by UV-visible absorption spectroscopy: Ba(II); assay type: binding; settings: in the absence of Cu(II) or Cu(I)
[27] = Cu(II) column, cited from earlier work
[28] = ITC, metal binding to mb: Ag(I); settings: Ag(I) column
Procedure: as §1, §2, §3

[29] = first site, two-site fit, 25° C.

Question: Which results are given for methanobactin [mb]?
Answer: K1 [1, 29]: 9.7 ± 0.6 × 10^5 M^−1; K1 ([1]; second site): 1.7 ± 0.7 x10^5 M^−1; binding of Zn(II) by mb [2]: will bind; binding of Ag(I) by mb [3]: will bind; binding of Co(II) by mb [4]: will bind; K1 [5]: 7.7 ± 1.8 × 10^5 M^−1; binding of Hg(II) by mb [6]: will bind; binding of U(VI) by mb [7]: will bind; binding of Fe(III) by mb [8]: will bind; binding of Cd(II) by mb [9]: will bind; oxidation state of Ni(II) following binding to mb [10]: did not change; binding of Sr(II) by mb [11]: not; binding of La(III) by mb [12]: not; K1 [13, 29]: 4.9 ± 0.9 × 10^5 M^−1; K1 ([13]; second site): 1.17 ± 0.5 × 10^7 M^−1; K1 [14]: 6.84 ± 0.4 × 10^5 M^−1; K1 [15, 29]: 4.5 ± 1.4 × 10^6 M^−1; K1 ([15]; second site): 1.8 ± 0.1 × 10^4 M^−1; K1 [16, 29]: 9.9 ± 2.9 × 10^6 M^−1; K1 ([16]; second site): 89.9 ± 0.01 × 10^4 M^−1; K1 [17, 29]: 1.3 ± 0.8 × 10^6 M^−1; K1 ([17]; second site): 1.1 ± 0.6 × 10^7 M^−1; binding of Mn(II) by mb [18]: will bind; binding of Au(III) by mb [19]: will bind; K1 [20, 29]: 1.0 ± 0.5 × 10^5 M^−1; K1 ([20]; second site): 1.8 ± 0.2 × 10^5 M^−1; binding of Pb(II) by mb [21]: will bind; binding of Mg(II) by mb [22]: not; binding of Ni(II) by mb [23]: will bind; K1 [24]: 1.1 ± 0.2 × 10^6 M^−1; Au to mb ratio above which Au(III) is detected in reaction mixtures [25]: > 2 Au(III) per mb; oxidation state of Au(III) after binding by mb ([25]; no external reductant): reduced to Au(0); binding of Ba(II) by mb [26]: not; K1 ([27]; first site): 3.3e+34 ± 3e+11 M⁻¹; K1 ([27]; second site): 2.6 ± 0.5 × 10^8 M^−1; K1 [28, 29]: 2.6 ± 0.4 × 10^7 M^−1; K1 ([28]; second site): 4.7 ± 0.45 × 10^4 M^−1
